According to patent US9034359B2, “Composition comprising biodegradable hydrating ceramics for controlled drug delivery” (Lidds AB, priority 2003, dated 2015):

Assay: Dog study: plasma concentration of 2-hydroxyflutamide after implant in prostate tissue
Type: in vivo
Conditions: 30, 60 or 120 mg in calcium sulphate-water implant in prostate tissue
Experimental: Composition according to example 1, composition 2, with three different 2-hydroxyflutamide (HT) concentrations, was tested in a dog study. The concentration profile of HT in prostate tissue in male dogs after local administration of the composition was investigated at different time points. Also a reference implant without HT was implanted in one dog.
Three male dogs are given 30, 60 or 120 mg of 2-hydroxy-flutamide by local implant delivery system in the prostate tissue; the total implantation time was 3 weeks.
The implant drug delivery system was inserted locally into the prostate tissue through sterile needles during rectal ultrasound guidance. The animals were under anesthesia during the insertion procedure.
Blood samples were taken every day for the first week and then once a week for the remaining weeks. Plasma samples were collected in tubes with EDTA and the plasma were transferred to microtubes of 2 ml, (sterile kryotubes from Sarstedt; No. 694.005).
The quantification of the parent drug, 2-hydroxyflutamide, in the plasma and tissue samples, was done by HPLC-MS analysis.

- extended plasma profile duration: 3 to 6 days
SMILES: CC(C)(O)C(=O)Nc1ccc([N+](=O)[O-])c(C(F)(F)F)c1 [2-hydroxyflutamide]
